# Laboratory results reported in PubChem BioAssay AID2060485 (Molecular Pharmacology Branch, DTP, NCI, 2025).
# Several values for one entry are separate records, joined by “and”; a condition that tells them apart may be missing. Equal values may be shown once.
# System: A375 multi-cell spheroids with HUVEC/MSC, viability
# Assay: Anticancer human tumor A375 cell line growth inhibition [GQUAD];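 also: spheroids exposed to compounds for seven days before readout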
# Details: for viability, T/C: stronger effect = lower value
# Description: DNA G-quadruplex Stabilizer Agents in Combinations in Complex Spheroids
# A high-throughput screen of multi-cell type tumor spheroids was designed to identify active combinations of DNA G-quadruplex stabilizer agents and targeted small molecules. Complex spheroids include a stromal component modeled by human endothelial cells (HUVEC) and fibroblasts modeled by human mesenchymal stem cells (MSCs). The concentration ranges selected for each drug and investigational agent were based upon clinically achievable concentrations if the clinical Cmax of the agent was known.
# Compounds. The drugs and investigational agents: pidnarulex (CX-5461; NSC782164), APTO-253 (NSC789042), BRACO-19 (NSC847499), peposertib (NSC802822), ceralasertib (NSC780249), elimusertib (NSC800525), camonsertib (NSC841442), AZD-1390 (NSC803789), olaparib (NSC753686), talazoparib (NSC767125), ART-558 (NSC835418), sotorasib (NSC818433), MRTX-1133 (NSC836407), SN-38 (NSC673596), topotecan (NSC609699), etoposide (NSC141540), doxorubicin (NSC123127), gemcitabine (NSC613327), 5-fluorouracil (NSC19893), paclitaxel (NSC125973), vemurafenib (NSC761431), panobinostat (NSC761190), R-306465 (JNJ-16241199; NSC773264), adavosertib (NSC754352), TP-3654 (NSC805149), carboplatin (NSC241240), KSQ-4279 (NSC840948), and staurosporine (NSC755774) were obtained from the National Cancer Institute (NCI) Developmental Therapeutics Program Chemical Repository (34). The FDA-approved anticancer drug set is available from the NCI Developmental Therapeutics Program. […] The stock solutions were prepared in dimethyl sulfoxide (DMSO, Sigma-Aldrich, St. Louis, MO, cat. D2650) at 800-fold the tested concentration and stored at -70 degrees C prior to their use. All drugs and investigational agents were tested over a range starting from a high concentration at or near the clinical Cmax and decreasing in half-log increments. If the clinical Cmax for an agent had not been determined, the highest concentration tested was 10 microM.
# 2.3 Cell Culture. All cells were maintained in an incubator at 37 degrees C and 5% CO2 with 95% humidity. The PDC lines were cultured according to standard operating procedures established by the NCI PDMR. All PDCs were thawed and cultured in Matrigel-coated flasks prepared with a working solution of 1X Ham's F-12 nutrient mix, without supplementation (Invitrogen, cat. 11765054), 100 U/mL penicillin-streptomycin (Invitrogen, cat. 15140122), and 2.5% Matrigel (Corning Inc., cat. 354248) for the first three passages. The 857933-349-R-J2-PDC line was cultured in 6C/Colon 1B media, which includes advanced DMEM/F-12 (Thermo Fisher Scientific, cat. 12634028), 10 mM HEPES (Thermo Fisher Scientific, cat. 15630080), 1X GlutaMAX supplement (Thermo Fisher Scientific, cat. 35050061), 0.1 mg/mL primocin (InvivoGen, cat. ant-pm-2), 10% defined fetal bovine serum, heat inactivated (HyClone Laboratories Inc., cat. SH30070.03HI), 50% L-WRN conditioned media (ATCC, cat. CRL-3276), 1.25 mM N-Acetyl-L-cysteine (Sigma-Aldrich, cat. A9165), 10 mM nicotinamide (Sigma-Aldrich, cat. N0636), 1X B-27 supplement (Thermo Fisher Scientific, cat. 17504044), 1X N-2 supplement (Thermo Fisher Scientific, cat. 17502048), 10 microM Y-27632 dihydrochloride (Tocris Bioscience, cat. 1254), and 50 ng/mL human EGF recombinant protein (Thermo Fisher Scientific, cat. PHG0311). The 485176-168-R4-J1-PDC line was cultured in Panc media, which includes all 6C/Colon 1B media components plus 100 ng/mL human FGF-10 (Thermo Fisher Scientific, cat. 100-26), 500 nM SB-431542 (Selleckchem, cat. S1067), and gastrin (Tocris, cat. 3006).
# […]
# [1] = compound alone, run of 03/18/2024
SMILES,"viability, T/C (compound 0.0316 µM)","viability, T/C (compound 0.1 µM)","viability, T/C (compound 0.316 µM)","viability, T/C (compound 1 µM)","viability, T/C (compound 3.16 µM)","viability, T/C (compound 10 µM)",IC50 (curve of compound),IC50 [1],"IC50 (compound alone, run of 03/26/2024)","viability, T/C (compound 0.000999 µM)","viability, T/C (compound 0.00316 µM)","viability, T/C (compound 0.00999 µM)","viability, T/C (compound 0.0999 µM)"
COc1cc(C2c3cc4c(cc3C(OC3OC5COC(C)OC5C(O)C3O)C3COC(=O)C23)OCO4)cc(OC)c1O (stereo unspecified),93.3% and 94.2% and 109%,105% (2×) and 118%,93.9% and 92.3% and 76.3%,65.6% and 63.6% and 58.4%,34% and 34.8% and 33.6%,24.1% and 21.5% and 21.2%,1750 nM and 1690 nM and 1370 nM,–,–,–,–,–,–
COc1ccc([C@@H](O)c2cc(-c3ncnc4cc(N5CCOCC5)ccc34)c(F)cc2Cl)nn1,97.1% and 112%,107% and 117%,102% and 98.3%,101% and 103%,100% and 91%,83% and 67.6%,> 10000 nM,–,–,–,–,–,–
COc1cccc2c1C(=O)c1c(O)c3c(c(O)c1C2=O)CC(O)(C(=O)CO)CC3OC1CC(N)C(O)C(C)O1 (stereo unspecified),93% and 102% and 100%,89.2% and 78.7% and 73.9%,33.4% and 33.9% and 34.3%,19.4% and 18.2% and 21.9%,1.94% and 2.47% and 2.18%,0.14% and 0.19% and 0.1%,231 nM and 221 nM and 215 nM,–,–,–,–,–,–
COc1ncnc(C2CC2)c1-c1ncc2cnn(Cc3ccc(-c4nc(C(F)(F)F)cn4C(C)C)cc3)c2n1,94% and 97.5% and 102%,93.6% and 99.8% and 99.5%,93.8% and 100% and 99.5%,104% and 98.2% and 103%,109% and 103% and 105%,106% and 108% and 99.5%,> 10000 nM,–,–,–,–,–,–
Cc1[nH]c2ccc(F)cc2c1-c1nc2c3cccnc3c3ncccc3c2[nH]1,99.2% [middle of 12 runs],99.6% [middle of 12 runs],103% [middle of 12 runs],102% [middle of 12 runs],–,100% [middle of 12 runs],–,> 10000 nM,> 10000 nM,–,–,–,–
Cc1[nH]c2ccccc2c1CCNCc1ccc(/C=C/C(=O)NO)cc1,114% (2×) and 115%,–,7.14% and 9% and 10.9%,–,–,–,99.1 nM and 120 nM and 186 nM,–,–,103% and 99.2% and 97.9%,98.1% and 105% and 101%,110% and 118% and 113%,49.5% and 57.8% and 96%
Cc1cccc(N(C)C(=O)C2C(O)CCN2c2nc(C)cc(C(F)(F)F)c2C#N)c1 (stereo unspecified),110% and 103% and 101%,94.9% and 106% and 101%,97.7% and 98.8% and 106%,97.1% and 104% and 90.2%,96.7% and 109% and 108%,97.8% and 103% and 95%,> 10000 nM,–,–,–,–,–,–
Cc1cnc(CNC(=O)c2c(=O)c3ccc(N4CCCN(C)CC4)nc3n3c2sc2ccccc23)cn1,101% [middle of 11 runs],82.4% [middle of 11 runs],57.1% [middle of 11 runs],42.3% [middle of 11 runs],37.6% [middle of 11 runs],31.1% [middle of 11 runs],–,582 nM [middle of 11 runs],–,–,–,–,–
Cn1ncnc1[C@H]1c2n[nH]c(=O)c3cc(F)cc(c23)N[C@@H]1c1ccc(F)cc1,108% and 106% and 99.2%,–,94.1% and 91.5% and 92.8%,–,–,–,> 316 nM,–,–,93.9% and 104% and 90.5%,98% and 101% and 97%,104% and 103% and 98.8%,112% and 104% and 98.9%
Nc1ccn(C2OC(CO)C(O)C2(F)F)c(=O)n1 (stereo unspecified),17.8% and 12.3% and 18.4%,9.82% and 7.07% and 9.32%,9.4% and 5.69% and 8.76%,10.4% and 6.8% and 10.7%,11.5% and 7.2% and 10.4%,9.06% and 6.96% and 7.8%,< 31.6 nM,–,–,–,–,–,–
O=C(NO)c1cnc(N2CCN(S(=O)(=O)c3ccc4ccccc4c3)CC2)nc1,107% and 124% and 114%,109% and 110% and 112%,5.8% and 7.04% and 12.4%,0.3% and 0.23%,0.3% and 0.39% and 0.16%,0.32% and 0.35% and 0.19%,192 nM and 195 nM and 205 nM,–,–,–,–,–,–
O=C(c1cc(Cc2n[nH]c(=O)c3ccccc23)ccc1F)N1CCN(C(=O)C2CC2)CC1,93.2% and 101% and 92.1%,92% and 98.2% and 93.7%,98.1% and 94.9% and 107%,101% (2×) and 99.2%,101% and 105% and 95.4%,91% and 84.7% and 87.8%,> 10000 nM,–,–,–,–,–,–
O=c1[nH]cc(F)c(=O)[nH]1,97% and 94.6% and 100%,103% and 94.6% and 105%,106% and 95.4% and 101%,96.8% and 100% and 101%,106% and 94.5% and 104%,104% and 106% and 103%,> 10000 nM,–,–,–,–,–,–
